Assay results: article PMC10825133, “Repurposing proteasome inhibitors for improved treatment of triple-negative breast cancer” (Cell Death Discovery, 2024)
Read-outs that look alike come from different tables or passages of the source.

Key:
[1] = system: eight TNBC cell lines (BT-549, CAL-148, HCC1806, HCC38, HCC70, MDA-MB-436, MDA-MB-453, MDA-MB-468); experiment: Monotherapy drug screen, mean across the TNBC cell lines; settings: for cytotoxic effect at the highest dose / area under the dose response curve (AUC), mean ± SD: TNBC cell lines; for cytotoxic effect at the highest dose: by GRmax; for IC50: read-out: GR50 (mean ± SD)
Protocol: Eighteen pharmaceutical compounds were purchased from Selleckchem (Supplementary Table 2). Stock solutions were prepared using dimethyl sulfoxide (DMSO; Merck), physiological saline (sodium chloride 0.9%) or Milli-Q water, and stored at −80 °C. […] Matched concentration solvent vehicle controls were used for each drug concentration. The drug screens were performed in triplicate and repeated three (monotherapy) or two (combination therapy) times (Fig. 7).
The optimal seeding density per 96-well was determined for each cell line as previously described. The cells were seeded at a density of 4.0 × 10^3 to 7.5 × 10^3 (cell type dependent) in 96-well clear, flat-bottom microplates (Corning Life Sciences, Sigma-Aldrich) in 100 µl complete culture medium (Supplementary Table 1) and cultured for 24 h. Cell viability was determined using the resazurin assay in untreated cells at the time of plating (t = 0) and treated cells after 24 h drug treatment (Fig. 7). Percentage cell viability was calculated as 100% × (absorbance of treated cells – absorbance of background controls) / (absorbance of matched solvent vehicle controls – absorbance of background controls). The area under the curve (AUC), half-maximal inhibitory concentration (IC50), drug potency (GR50), and drug efficacy (GRmax) were determined for each compound using the GRmetrics (version 1.20.0) package in R. The monotherapy data were evaluated with the IDACombo (version 1.0.2) package in R to predict potential drug combinations (Table 1). SynergyFinder (version 3.2.10) package in R was used to identify synergistic drug combinations.
Eighteen pharmaceutical compounds were purchased from Selleckchem. […] The solubility of the compound was enhanced by pre-heating the solvent (lukewarm), if necessary. […] The stock solutions were stored at -80°C. […] Matched concentration solvent vehicle controls were used for each drug concentration. The drug screens were performed in triplicate and repeated three times for the monotherapies and twice for the combination treatments. The drug(s) and corresponding controls were plated in 96-well PCR plates (VWR) and stored at -20°C (Fig. 6). The drug plates were thawed, centrifuged (3000 rpm for 30s), and acclimatized to RT before the drugs were added to the cells. New drug plates were prepared for each drug screen.
The cells were seeded at a density of 4.0x10^3 to 7.5x10^3 (cell type-dependent) in 96-well clear, flat-bottom microplates (Corning Life Sciences, Sigma-Aldrich) in 100 µl culture medium supplemented with 10% FBS and cultured for 24h. Cell viability was determined using the resazurin assay after 24h drug treatment (Fig. 6). Percentage cell viability was calculated as 100% × (absorbance of treated cells – absorbance of background controls) / (absorbance of matched solvent vehicle controls – absorbance of background controls). Normalized growth rate inhibition (GR) was assessed using the absorbance of untreated cells after the time of plating (t = 0). […] For combination treatment, the monotherapy data were evaluated with the IDACombo (version 1.0.2)[20] package in R to predict potential drug combinations (Table 1). SynergyFinder (version 3.2.10)[21] package in R was used to identify synergistic drug combinations.

[2] = system: BT-549 cells; experiment: Resazurin-based cell viability assay, monotherapy drug screen; parameters: species or system human; AUC: scale not given here; settings: BT-549; for AUC: area under the dose response curve, 24 h; for GRmax: drug efficacy at highest tested dose (<0 cytotoxic, 0 cytostatic, >0 partial growth inhibition)
Outline: (§1)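 Cells were seeded at the highest density (tested 1000-16000 cells/well) giving linear growth between days 1 and 3, keeping them in exponential phase over the ~52 h experiment. Viability was read after 4 h at 37 °C with 0.2 mg/ml resazurin added at 10% of medium volume; ex 560/em 615 nm.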

[3] = system: MDA-MB-436 cells; experiment: as above; parameters: species or system human; AUC: scale not given here; settings: MDA-MB-436; for IC50: growth rate inhibition concentration at GR(c) = 0.5, 24 h, read-out: GR50 (the source's name); for AUC: area under the dose response curve, 24 h; for GRmax: drug efficacy at highest tested dose (<0 cytotoxic, 0 cytostatic, >0 partial growth inhibition)
Outline: as §1

[4] = system: HCC1806 cells; experiment: as above; parameters: species or system human; AUC: scale not given here; settings: HCC1806; for AUC: area under the dose response curve, 24 h; for GRmax: drug efficacy at highest tested dose (<0 cytotoxic, 0 cytostatic, >0 partial growth inhibition)
Outline: as §1

[5] = system: MCF-7 cells; experiment: as above; parameters: species or system human; AUC: scale not given here; settings: MCF-7; for AUC: area under the dose response curve, 24 h; for GRmax: drug efficacy at highest tested dose (<0 cytotoxic, 0 cytostatic, >0 partial growth inhibition)
Outline: as §1

[6] = system: HCC38 cells; experiment: as above; parameters: species or system human; AUC: scale not given here; settings: HCC38; for AUC: area under the dose response curve, 24 h; for GRmax: drug efficacy at highest tested dose (<0 cytotoxic, 0 cytostatic, >0 partial growth inhibition)
Outline: as §1

[7] = system: HCC70 cells; experiment: as above; parameters: species or system human; AUC: scale not given here; settings: HCC70; for AUC: area under the dose response curve, 24 h; for GRmax: drug efficacy at highest tested dose (<0 cytotoxic, 0 cytostatic, >0 partial growth inhibition)
Outline: as §1

[8] = system: MCF-10A cells; experiment: as above; parameters: species or system human; AUC: scale not given here; settings: for AUC: area under the dose response curve, 24 h
Outline: as §1

[9] = system: MDA-MB-468 cells; experiment: as above; parameters: species or system human; AUC: scale not given here; settings: MDA-MB-468; for AUC: area under the dose response curve, 24 h
Outline: as §1

[10] = system: MDA-MB-453 cells; experiment: as above; parameters: species or system human; AUC: scale not given here; settings: MDA-MB-453; for AUC: area under the dose response curve, 24 h
Outline: as §1

[11] = Homo sapiens, 24 h drug treatment, read-out: IC50
[12] = Homo sapiens, growth rate inhibition concentration at GR(c) = 0.5, 24 h, read-out: GR50 (the source's name)
[13] = Homo sapiens, MCF7, growth rate inhibition concentration at GR(c) = 0.5, 24 h, read-out: GR50 (the source's name)
[14] = growth rate inhibition concentration at GR(c) = 0.5, 24 h, read-out: GR50 (the source's name)
[15] = 24 h drug treatment, read-out: IC50
[16] = drug efficacy at highest tested dose (<0 cytotoxic, 0 cytostatic, >0 partial growth inhibition)

Row | Compound | cytotoxic effect at the highest dose [1] | AUC [2] | GRmax [2] | IC50 [2, 12] [nM] | IC50 ([3]; Homo sapiens) [nM] | AUC [3] | GRmax [3] | AUC [4] | GRmax [4] | IC50 [4, 12] [nM] | IC50 [5, 13] [nM] | AUC [5] | GRmax [5] | AUC [6] | GRmax [6] | AUC [7] | GRmax [7] | AUC [8] | AUC [9] | AUC [10] | further results
1 | COc1cccc2c1C(=O)c1c(O)c3c(c(O)c1C2=O)C[C@@](O)(C(=O)CO)C[C@@H]3O[C@H]1C[C@H](N)[C@@H](O)[C@H](C)O1 [Epirubicin] | lowest cytotoxic effects | 0.88 | 0.34 | 4300 | 3600 | 0.84 | 0.26 | 0.86 | 0.45 | 6200 | 1100 | 0.89 | 0.42 | 0.81 | −0.03 | 0.83 | −0.49 | 0.69 | 0.80 | 0.90 | IC50 [2, 11]: 4600 nM; IC50 ([5]; Homo sapiens, MCF7, 24 h drug treatment, read-out: IC50): 1500 nM; IC50 [6, 11]: 2300 nM; IC50 [6, 12]: 690 nM; IC50 [7, 11]: 1600 nM; IC50 [7, 12]: 1000 nM; IC50 [8, 11]: 690 nM; IC50 [8, 12]: 690 nM; IC50 [9, 11]: 2200 nM; IC50 [9, 12]: 960 nM; IC50 [10, 11]: 5300 nM; IC50 [10, 12]: 3200 nM
2 | CC[C@H](C)[C@H](NC(=O)[C@H]([C@@H](C)CC)N(C)C(C)=O)C(=O)N[C@H](C(=O)N[C@@H](CC(C)C)C(=O)[C@@]1(C)CO1)[C@@H](C)O [Epoxomicin] | lowest cytotoxic effects | 0.73 | 0.38 |  |  | 0.77 | 0.37 | 0.73 | 0.34 |  |  | 0.74 | 0.42 | 0.47 | −0.74 | 0.72 | −0.52 | 0.58 | 0.65 | 0.70 | area under the dose response curve (AUC), mean ± SD ([1]; 24 h): 0.69 ± 0.10; IC50 ([1]; across the TNBC cell lines, 24 h drug treatment): 220 ± 230 nM; IC50 [2, 14]: 130 nM; IC50 [3]: 320 nM; IC50 [4, 15]: 470 nM; IC50 [4, 14]: 290 nM; IC50 [5, 15]: 1200 nM; IC50 [5, 14]: 75 nM; IC50 [6, 15]: 54 nM; IC50 [6, 14]: 44 nM; IC50 [7, 15]: 980 nM; IC50 [7, 14]: 140 nM; IC50 [8, 15]: 88 nM; GRmax [8, 16]: −0.05; IC50 [8, 14]: 95 nM; IC50 [9, 15]: 110 nM; GRmax [9, 16]: 0.01; IC50 [9, 14]: 51 nM; GRmax [10, 16]: 0.32; IC50 [10, 14]: 15 nM
3 | CC(C)C[C@H](NC(=O)CNC(=O)c1cc(Cl)ccc1Cl)B(O)O [MLN 2238, MLN-2238] |  | 0.75 | 0.40 | 140 | 160 | 0.88 | −0.78 | 0.75 | 0.39 | 3300 | 340 | 0.87 | −0.29 | 0.59 | −0.99 | 0.78 | −0.36 | 0.72 | 0.67 | 0.81 | IC50 ([1]; Homo sapiens, 24 h): 680 ± 1000 nM; area under the dose response curve (AUC), mean ± SD ([1]; 24 h): 0.76 ± 0.10; IC50 [4, 11]: 3000 nM; IC50 [6, 11]: 110 nM; IC50 [6, 12]: 71 nM; IC50 [7, 11]: 2700 nM; IC50 [7, 12]: 740 nM; IC50 [8, 11]: 410 nM; IC50 [8, 12]: 76 nM; IC50 [9, 11]: 240 nM; IC50 [9, 12]: 55 nM; IC50 [10, 11]: 4300 nM; IC50 [10, 12]: 640 nM
